Reference: patent publication US20250059201A1, “CAMPTOTHECIN COMPOUND AND CONJUGATE THEREOF” (priority 2021, published 2025)
“And” between values parts separate entries of the source, which are not always exact repeats. Equal entries are not always repeated. Where two headings read alike, the source gives them in different places.

T1: Trop-2 on BxPC-3 cells (human, UniProt P09758 27-323)
T1 construct: whole, on cells; also called Trop-2-positive BxPC-3 tumor cells
T1 sequence (looked up): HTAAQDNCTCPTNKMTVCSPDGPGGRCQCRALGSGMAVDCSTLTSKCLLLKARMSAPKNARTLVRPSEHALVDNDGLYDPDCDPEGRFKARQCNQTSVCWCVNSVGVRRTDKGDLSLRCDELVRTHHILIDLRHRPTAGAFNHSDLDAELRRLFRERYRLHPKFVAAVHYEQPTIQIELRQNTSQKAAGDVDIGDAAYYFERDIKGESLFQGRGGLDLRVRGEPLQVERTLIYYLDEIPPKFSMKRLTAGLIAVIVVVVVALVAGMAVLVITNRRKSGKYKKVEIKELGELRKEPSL

B1: Trop2-ADC-14 (antibody, human IgG1, kappa, V domains shown)
VH: QVQLVQSGAEVKKPGASVKVSCKASGYTFTSYWMHWVRQAPGQGLEWMGEITPSDNYGSYNQKFKGRVTITRDTSTSTAYMELSSLRSEDTAVYYCARGHGNYVSFDYWGQGTLVTVSS
VL: DIQMTQSPSSLSASVGDRVTITCRASQDISNYLNWYQQKPGKAPKLLIYYTSRLESGVPSRFSGSGSGTDFTLTISSLQPEDFATYFCQQGYTLPPYTFGQGTKLEIKR
modifications: drug-containing linker MWF-L6 (Compound 3 payload) bridged on cysteines of the reduced disulfide bonds, DAR 4.1; positions not given
notes: Antibody-drug conjugate: antibody h23-12 with MWF-L6, site-specific bridged conjugation, DAR 4.1; also called ADC 1o; h23-12 conjugated with drug-containing linker MWF-L6
B2: Antibody h23-12 (antibody, human IgG1, kappa, V domains shown)
VH: B1 VH
VL: B1 VL
notes: Monoclonal antibody; also called the mAb in Trop2-ADC-14; anti-Trop-2 antibody h23-12

Columns and labels:
[1] = system: BxPC-3 human pancreatic adenocarcinoma cells; assay: Comparative study of the activity of camptothecins (CCK-8 cell killing); assay type: cell-based; settings: for Emax: read-out: Maximum Killing (%), BxPC-3, killing days 4 days
Method: (§1) KB oral epithelial cancer cells (purchased from: ATCC) were cultured in DMEM medium supplemented with 10% FBS; NCI-N87 human gastric cancer cells (purchased from: ATCC) were cultured in RPMI1640 medium supplemented with 10% FBS; HT29 human colon cancer cells (purchased from: ATCC) were cultured in RPMI1640 medium supplemented with 10% FBS; and BxPC-3 human pancreatic adenocarcinoma cells (purchased from: ATCC) were cultured in RPMI1640 medium supplemented with 10% FBS.
(§2) Using corresponding media described above and in cell plates, the density of KB cells was adjusted to 2×10^4/mL; the density of NCI-N87 cells was adjusted to 5×10^4/mL; the density of HT29 cells was adjusted to 5×10^4/mL, and the cells were plated onto 96-well transparent flat bottom plates, at 100 µL/well, and cultured overnight; and the density of BxPC-3 cells was adjusted to 5×10^4/mL.
(§3) Samples to be detected were diluted to 20 μM with corresponding media, then 5-fold gradient dilution was performed, and 9 concentrations were obtained. A well having cells but with no any sample added was set as the well showing maximum cell growth; and a well having no cells was set as the well of medium background. The diluted samples were added into the cell plates, at 100 μL/well, which were then incubated in a C02 incubator for 96 hours. After the incubation, CCK-8 (purchased from: DOJINDO LABORATORIES) prepared beforehand was added into the plates, at 20 μL/well, and after further 3 hours incubation in the C02 incubator, […] were read on a microplate reader.
(§4) Data obtained was fitted to a four-parameter curve using software Prism7, and equation for calculating maximum killing is: maximum killing (%)=1−(OD450 value of the well showing maximum killing—OD450 value of the well of medium background)/(OD450 value of the well showing maximum cell growth—OD450 value of the cell of medium background)[…].

[2] = system: NCI-N87 human gastric cancer cells; assay: as above; assay type: cell-based
Method: as §1, §2, §3, §4

[3] = system: HT29 human colon cancer cells; assay: as above; assay type: cell-based; settings: HT29, killing days 4 days
Method: as §1, §2, §3, §4

[4] = system: KB oral epithelial cancer cells; assay: as above; assay type: cell-based; settings: killing days 4 days
Method: as §1, §2, §3, §4

Trop-2 on BxPC-3 cells [5] = biological target: T1, Trop-2 on BxPC-3 cells; assay: flow cytometry, fluorescently labeled drug on BxPC-3 cells, on ice 1 h (mean ± SD, n = 2)
Method: (§5) Different concentrations (1, 3, 10, 30, 100, 300, 1000, 3000, 10000, 30000, and 100000 ng/mL) of fluorescently labeled Trop2-ADC-14 and the mAb in Trop2-ADC-14 (i.e., antibody h23-12) were incubated with BxPC-3 cells (purchased from: ATCC) on ice for 1 hour in dark, and then the cells were centrifuged to remove supernatant, washed with PBS, re-suspended, and the fluorescence intensity of the drugs bound to the cells was measured with a flow cytometer (BD ACCURI C6 PLUS). The experiment was repeated once.

Trop-2 on BxPC-3 cells [6] = biological target: T1, Trop-2 on BxPC-3 cells; assay: flow cytometry, fluorescently labeled antibody on BxPC-3 cells, on ice 1 h (mean ± SD, n = 2)
Method: as §5

[7] = Homo sapiens, NCI-N87, 96 h, read-out: Maximum Killing (%), NCI-N87, killing days 4 days
[8] = Homo sapiens, BXPC-3, 96 h, BxPC-3, killing days 4 days

Molecule | Emax ([1]; Homo sapiens, BXPC-3, 96 h) | Emax [2, 7] | further results
CC[C@@]1(O)C(=O)OCc2c1cc1n(c2=O)Cc2c-1nc1cc(F)c(N)c3c1c2CCO3 [Compound 18] | 99.6% | 92.9% | 
CC[C@@]1(O)C(=O)OCc2c1cc1n(c2=O)Cc2c-1nc1cc(F)c(N)c3c1c2C(F)(F)CO3 [Compound 19] | 97.4% |  | 
CC[C@@]1(O)C(=O)OCc2c1cc1n(c2=O)Cc2c-1nc1ccc(N)c3c1c2CCC3 [MWC-1, reference compound] |  | 93.4% | EC50 [3]: 8.68 nM; EC50 ([3]; Homo sapiens, HT-29, 96 h): 9.89 nM; EC50 ([4]; 96 h): 14.8 nM; EC50 ([2]; Homo sapiens, NCI-N87, 96 h, NCI-N87, killing days 4 days, read-out: EC50): 4.44 nM; EC50 ([2]; NCI-N87, killing days 4 days, read-out: EC50): 5.22 nM
CC[C@@]1(O)C(=O)OCc2c1cc1n(c2=O)Cc2c-1nc1ccc(N)c3c1c2C(F)(F)CO3 [Compound 31] | 93.7% | 90.7% | 
CC[C@@]1(O)C(=O)OCc2c1cc1n(c2=O)Cc2c-1nc1ccc(N)c3c1c2C(C)(C)CC3 [Compound 1] |  | 92.1% | 
CC[C@@]1(O)C(=O)OCc2c1cc1n(c2=O)Cc2c-1nc1ccc(N)c3c1c2CCO3 [Compound 14] | 84.7% |  | EC50 [1, 8]: 6.46 nM
CC[C@@]1(O)C(=O)OCc2c1cc1n(c2=O)Cc2c-1nc1cc(F)c(N)c3c1c2C(F)(F)CS3 [Compound 27] | 97.7% | 90.6% | 
CC[C@@]1(O)C(=O)OCc2c1cc1n(c2=O)Cc2c-1nc1ccc(N)c3c1c2C(F)(F)CS3 [Compound 13] | 98.9% |  | EC50 [1, 8]: 1.41 nM
CC[C@@]1(O)C(=O)OCc2c1cc1n(c2=O)Cc2c-1nc1ccc(N)c3c1c2C1CC1C3 (some centres unmarked) [Compound 7] | 94.4% | 87.9% | 
CC[C@@]1(O)C(=O)OCc2c1cc1n(c2=O)Cc2c-1nc1ccc(N)c3c1c2CCS3 [Compound 12] | 98.5% | 94.9% | 
CC[C@@]1(O)C(=O)OCc2c1cc1n(c2=O)Cc2c-1nc1cc(F)c(N)c3c1c2CCS3 [Compound 26] | 99.1% | 93.4% | 
CC[C@@]1(O)C(=O)OCc2c1cc1n(c2=O)Cc2c-1nc1ccc(N)c3c1c2CCS3(=O)=O [Compound 15] | 87.9% | 83.6% | 
CCC1(O)CC(=O)OCc2c1cc1n(c2=O)Cc2c-1nc1ccc(N)c3c1c2CCC3 (centres unmarked) [Compound 17] |  |  | EC50 ([2]; Homo sapiens, 96 h, NCI-N87, killing days 4 days, read-out: EC50): 7.43 nM; Emax ([2]; Homo sapiens, 96 h, NCI-N87, killing days 4 days, read-out: Maximum Killing (%)): 87.6%
CC[C@@]1(O)C(=O)OCc2c1cc1n(c2=O)Cc2c-1nc1ccc(N)c3c1c2CC[S@@+]3[O-] [Compound 14-P2] | 43.3% | 68.4% | 
CC[C@@]1(O)C(=O)OCc2c1cc1n(c2=O)Cc2c-1nc1cc(F)c(N)c3c1c2C(F)(F)CC3 [Compound 20] | 99.2% | 93.2% | EC50 [1, 8]: 0.683 nM; EC50 ([2]; Homo sapiens, NCI-N87, 96 h, NCI-N87, killing days 4 days): 0.059 nM
CC[C@@]1(O)C(=O)OCc2c1cc1n(c2=O)Cc2c-1nc1cc(F)c(C)c3c1c2[C@@H](NC(=O)CO)CC3 [Dxd] |  |  | Maximum Killing (%) ([1]; BxPC-3, killing days 4 days): 91.8%; EC50 ([1]; BxPC-3, killing days 4 days, read-out: EC50): 24.3 nM; EC50 [3]: 127 nM and 133 nM; Maximum Killing (%) [3]: 87.4% and 85.4%; Maximum Killing (%) [4]: 94.7% and 94.9%; Maximum Killing (%) ([2]; NCI-N87, killing days 4 days): 92.8% and 92.7% and 94.6%
CC[C@@]1(O)C(=O)OCc2c1cc1n(c2=O)Cc2c-1nc1ccc(N)c3c1c2CC[S@+]3[O-] [Compound 14-P1] | 38.8% | 42.5% | 
B1 |  |  | EC50 (Trop-2 on BxPC-3 cells [5]): 1.3 µg/mL
B2 |  |  | EC50 (Trop-2 on BxPC-3 cells [6]): 1.14 µg/mL
